The test system of experiment [1] is MDA-MB-231 human breast cancer xenograft. In words: MDA-MB-231 xenograft, intraperitoneal 160 mg/kg (Example 81). The note with it: 160 mg/kg intraperitoneally, q3d×10, lipiodol vehicle. The format is in vivo, mice. The method, then:
Athymic female nude mice (CRL:NU/NU-nuBR) were injected subcutaneously in the flank with MDA-MB-231 human breast cancer cells (8×10^6 cells/mouse). Prior to injection, MDA-MB-231 cells were cultured in DMEM (Invitrogen #11965-092) supplemented with 10% (v/v) heat inactivated fetal bovine serum (FBS), 1% Hepes buffer solution (Invitrogen #15630-080) and 1% Penicillin/Streptomycin (Invitrogen #15140-122) at 37° C. in 5% CO2. Tumors were allowed to grow to approximately 50 mm^3 in size. Animals were randomized into three groups of five animals per group. At day ten post injection, mice with established tumors were treated intraperitoneally with (±)-cis-3-(5,6-dihydro-4H-pyrrolo[3,2,1-ij]quinolin-1yl)-4(1H-indol-3-yl) pyrrolidine-2,5-dione (160 mg/kg), (±)-trans-3-(5,6-dihydro-4H-pyrrolo[3,2,1-ij]quinolin-1-yl)-4(1H-indol-3-yl)pyrrolidine-2,5-dione (160 mg/kg) administered in iodinated poppy seed oil (lipiodol) as the vehicle at 10 mg/ml, or vehicle control. Drug or vehicle was administered every three days for a total of ten doses (q3d×10). Tumor size was evaluated periodically during the study. For each subject, tumor volume was calculated using the formula (L×W^2)/2 where L and W were the length and width of the tumor, respectively. The arithmetic mean tumor volume was calculated for each treatment group+/−standard error of the mean (SEM). […]

Experiment [2] relates to PANC-1. In words: Colony formation assay (CFA). The format is cell-based. The settings on record: Homo sapiens; PANC-1, 24 hours exposure, colonies after 14-21 days; read-out: (−)-trans IC50 CFA. The procedure:
(§1) To determine c-met inhibition, exponentially growing MCF-7 and MDA-MB-231 human breast cancer cells, DLD1 and HT29 human colon cancer cells, PACA2 and PANC-1 human pancreatic cancer cells and NCI-H441 human non-small cell lung cancer cells (H441) were serum starved in 0.5% FBS and treated with increasing amounts of (−)-trans-3-(5,6-dihydro-4H-pyrrolo [3,2,1-ij]quinolin-1-yl)-4(1H-indol-3-yl)pyrrolidine-2,5-dione for 24 hours as indicated. Cells were then left unstimulated or stimulated with 100 ng/mL HGF for 10 minutes and whole cell extracts were prepared. Whole cell lysates (50 μg) were resolved by SDS-PAGE, transferred onto a PVDF membrane, and an enhanced chemiluminescence assay system (ECL) was used to determine the phosphorylation status of c-Met. A polyclonal antibody against phospho (Y1349) c-Met (phospho-c-Met) was obtained from Biosource International and a monoclonal antibody against β-actin was purchased from Invitrogen. Percent inhibition was determined by densitometry using the Scion Image For colony formation assays (CFA), exponentially growing cells were seeded at 2,000 cells per well in 6-well plates and allowed to attach for 24 hours. Increasing concentrations of (−)-trans-3-(5,6-dihydro-4H-pyrrolo[3,2,1-ij]quinolin-1-yl)-4(1H-indol-3-yl)pyrrolidine-2,5-dione (from 0.01 to 30 μM) were then added to the media for another 24 hours. After 24 hours exposure, the drug was removed and fresh media was added for the next 14-21 days, allowing for colony formation. Cells were fixed and stained with GEMSA (Gibco BRL). Colonies of greater than 50 cells were scored as survivors and percentage of cell survival was plotted to determine the IC50. […] The IC50 of (−)-trans-3-(5,6-dihydro-4H-pyrrolo[3,2,1-ij]quinolin-1-yl)-4(1H-indol-3-yl) pyrrolidine-2,5-dione for c-Met expressing solid tumor types is in the 0.1-0.7 μM range following exposure to (−)-trans-3-(5,6-dihydro-4H-pyrrolo[3,2,1-ij]quinolin-1-yl)-4(1H-indol-3-yl)pyrrolidine-2,5-dione for 24 hours, as determined by colony formation assay (CFA).

For experiment [3], the system named is PACA2. In words: Colony formation assay (CFA). The format is cell-based. The settings on record: Homo sapiens, PaCa-2; PACA2, 24 hours exposure, colonies after 14-21 days; read-out: (−)-trans IC50 CFA. The procedure: as §1
Experiment [4] relates to H661. The experiment can be described thus: Colony formation assay (CFA). The settings on record: Homo sapiens, NCI-H661; H661, 24 hours exposure, colonies after 14-21 days; read-out: (−)-trans IC50 CFA. The format is cell-based. The method, then: as §1
For experiment [5], the system named is HT-29. In words: Colony formation assay (CFA). The note with it: Homo sapiens; HT-29, 24 hours exposure, colonies after 14-21 days; read-out: (−)-trans IC50 CFA. The format is cell-based. The procedure:
as §1

Experiment [6] relates to DLD-1. The experiment can be described thus: Colony formation assay (CFA). The format is cell-based. The note with it: Homo sapiens; DLD-1, 24 hours exposure, colonies after 14-21 days; read-out: (−)-trans IC50 CFA. The method, then:
as §1

For experiment [7], the system named is H441. The experiment can be described thus: Colony formation assay (CFA). The format is cell-based. The note with it: Homo sapiens, NCI-H441; H441, 24 hours exposure, colonies after 14-21 days; read-out: (−)-trans IC50 CFA. The procedure:
as §1

Experiment [8] deals with MCF-7. In words: Colony formation assay (CFA). The format is cell-based. The settings on record: Homo sapiens, MCF7; MCF-7, 24 hours exposure, colonies after 14-21 days; read-out: (−)-trans IC50 CFA. The method, then: as §1
In experiment [9] the test system is MDA-MB-231. In words: Colony formation assay (CFA). The settings on record: Homo sapiens; MDA-MB-231, 24 hours exposure, colonies after 14-21 days; read-out: (−)-trans IC50 CFA. The format is cell-based. The method, then:
as §1

Experiment [10] concerns H446. The experiment can be described thus: Colony formation assay (CFA). The format is cell-based. The note with it: Homo sapiens, NCI-H446; H446, 24 hours exposure, colonies after 14-21 days; read-out: (−)-trans IC50 CFA. The method, then:
as §1

`O=C1NC(=O)[C@@H](c2cn3c4c(cccc24)CCC3)[C@@H]1c1c[nH]c2ccccc12` (racemic) [(±)-Trans-3-(5,6-dihydro-4H-pyrrolo[3,2,1-ij]quinolin-1-yl)-4(1H-indol-3-yl)pyrrolidine-2,5-dione]: the “reduction of normalized mean tumor volume compared to vehicle treated control” value in experiment [1] came out at 43.5%.

As usually defined, the IC50 is the point on the concentration scale where inhibition reaches its midpoint. Turning to `O=C1NC(=O)C(c2cn3c4c(cccc24)CCC3)C1c1c[nH]c2ccccc12` (single isomer, unassigned; (-)), the IC50 was determined as 0.5 µM in [2]; 0.3 µM in experiment [3]; 5 µM in experiment [4]; 0.2 µM in experiment [5]; 0.7 µM in [6]; 0.2 µM in experiment [7]. Moreover, the IC50 in [8] was found to be 0.4 µM; in experiment [9], 0.3 µM; in experiment [10], 4 µM.

(Values after patent publication US7713969B2, “Compositions and methods for treatment of cancer” (ArQule, Inc., priority 2005, dated 2010).)
